# From the supplement of paper PMC10307832
# Experiments:
# Assay in all cases: relative viability (nuclei count vs DMSO), 5 days (fraction); higher = more cells survive
# SW 1573 = system: SW 1573
# In short: (§1)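 Relative viability equals treated-well nuclei counts divided by vehicle-well nuclei counts. Counts came from 4× images of lung cancer cell lines grown in 1536-well plates for 5 days after pin-tool dosing on the day after seeding. Dosing used one drug alone or a fixed anchor-drug dose plus five library-drug doses (not always all listed) in √10 steps, and values are medians of duplicate plates.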
# SW 900 = system: SW 900
# In short: as §1
# NCI-H2228 = system: NCI-H2228
# In short: as §1
# HARA = system: HARA
# In short: as §1
# LK-2 = system: LK-2
# In short: as §1
# NCI-H1792 = system: NCI-H1792
# In short: as §1
# SK-MES-1 = system: SK-MES-1
# In short: as §1
# NCI-H522 = system: NCI-H522
# In short: as §1
# NCI-H1993 = system: NCI-H1993
# In short: as §1
# NCI-H2009 = system: NCI-H2009
# In short: as §1
# NCI-H727 = system: NCI-H727
# In short: as §1
# LXF-289 = system: LXF-289
# In short: as §1
# PC-3 [JPC-3] = system: PC-3 [JPC-3]
# In short: as §1
# NCI-H3122 = system: NCI-H3122
# In short: as §1
# NCI-H1944 = system: NCI-H1944
# In short: as §1
# HOP-62 = system: HOP-62
# In short: as §1
# A-427 = system: A-427
# In short: as §1
# NCI-H596 = system: NCI-H596
# In short: as §1
# NCI-H322M = system: NCI-H322M
# In short: as §1
# EMC-BAC-2 = system: EMC-BAC-2
# In short: as §1
# NCI-H2170 = system: NCI-H2170
# In short: as §1
smiles,measurement,setting,value
O=c1cc(-c2cccc3c2Sc2ccccc2S3)oc(N2CCOCC2)c1 + CC(=O)Nc1cccc(-n2c(=O)n(C3CC3)c(=O)c3c(Nc4ccc(I)cc4F)n(C)c(=O)c(C)c32)c1 [Trametinib] (partner 0.02 µM),relative viability,SW 1573; first compound 0.08 µM,0.597
same,relative viability,SW 1573; first compound 0.253 µM,0.691
same,relative viability,SW 1573; first compound 0.8 µM,0.575
same,relative viability,SW 1573; first compound 2.53 µM,0.574
same,relative viability,SW 1573; first compound 8 µM,0.554
same,relative viability,SW 900; first compound 0.253 µM,0.93
same,relative viability,SW 900; first compound 0.8 µM,0.777
same,relative viability,SW 900; first compound 2.53 µM,0.814
same,relative viability,SW 900; first compound 8 µM,0.816
same,relative viability,NCI-H2228; first compound 0.08 µM,0.554
same,relative viability,NCI-H2228; first compound 0.253 µM,0.72
same,relative viability,NCI-H2228; first compound 0.8 µM,0.582
same,relative viability,NCI-H2228; first compound 2.53 µM,0.416
same,relative viability,NCI-H2228; first compound 8 µM,0.447
same,relative viability,HARA; first compound 0.08 µM,0.786
same,relative viability,HARA; first compound 0.253 µM,0.615
same,relative viability,HARA; first compound 0.8 µM,0.537
same,relative viability,HARA; first compound 2.53 µM,0.668
same,relative viability,HARA; first compound 8 µM,0.581
same,relative viability,LK-2; first compound 0.08 µM,0.874
same,relative viability,LK-2; first compound 0.253 µM,0.852
same,relative viability,LK-2; first compound 0.8 µM,0.755
same,relative viability,LK-2; first compound 2.53 µM,0.712
same,relative viability,LK-2; first compound 8 µM,1.03
same,relative viability,NCI-H1792; first compound 0.08 µM,0.446
same,relative viability,NCI-H1792; first compound 0.253 µM,0.685
same,relative viability,NCI-H1792; first compound 0.8 µM,0.441
same,relative viability,NCI-H1792; first compound 2.53 µM,0.421
same,relative viability,NCI-H1792; first compound 8 µM,0.38
same,relative viability,SK-MES-1; first compound 0.08 µM,0.543
same,relative viability,SK-MES-1; first compound 0.253 µM,0.579
same,relative viability,SK-MES-1; first compound 0.8 µM,0.448
same,relative viability,SK-MES-1; first compound 2.53 µM,0.481
same,relative viability,SK-MES-1; first compound 8 µM,0.379
same,relative viability,NCI-H522; first compound 0.08 µM,0.725
same,relative viability,NCI-H522; first compound 0.253 µM,0.988
same,relative viability,NCI-H522; first compound 0.8 µM,0.724
same,relative viability,NCI-H522; first compound 2.53 µM,0.815
same,relative viability,NCI-H522; first compound 8 µM,0.734
same,relative viability,NCI-H1993; first compound 0.08 µM,0.462
same,relative viability,NCI-H1993; first compound 0.253 µM,0.64
same,relative viability,NCI-H1993; first compound 0.8 µM,0.46
same,relative viability,NCI-H1993; first compound 2.53 µM,0.467
same,relative viability,NCI-H1993; first compound 8 µM,0.544
same,relative viability,NCI-H2009; first compound 0.08 µM,0.257
same,relative viability,NCI-H2009; first compound 0.253 µM,0.236
same,relative viability,NCI-H2009; first compound 0.8 µM,0.24
same,relative viability,NCI-H2009; first compound 2.53 µM,0.213
same,relative viability,NCI-H2009; first compound 8 µM,0.208
same,relative viability,NCI-H727; first compound 0.08 µM,0.367
same,relative viability,NCI-H727; first compound 0.253 µM,0.37
same,relative viability,NCI-H727; first compound 2.53 µM,0.311
same,relative viability,NCI-H727; first compound 8 µM,0.389
same,relative viability,LXF-289; first compound 0.08 µM,0.657
same,relative viability,LXF-289; first compound 0.253 µM,0.716
same,relative viability,LXF-289; first compound 0.8 µM,0.73
same,relative viability,LXF-289; first compound 2.53 µM,0.651
same,relative viability,LXF-289; first compound 8 µM,0.692
same,relative viability,PC-3 [JPC-3]; first compound 0.08 µM,0.542
same,relative viability,PC-3 [JPC-3]; first compound 0.253 µM,0.732
same,relative viability,PC-3 [JPC-3]; first compound 0.8 µM,0.53
same,relative viability,PC-3 [JPC-3]; first compound 2.53 µM,0.617
same,relative viability,PC-3 [JPC-3]; first compound 8 µM,0.673
same,relative viability,NCI-H3122; first compound 0.08 µM,0.259
same,relative viability,NCI-H3122; first compound 0.253 µM,0.299
same,relative viability,NCI-H3122; first compound 0.8 µM,0.314
same,relative viability,NCI-H3122; first compound 2.53 µM,0.193
same,relative viability,NCI-H3122; first compound 8 µM,0.292
same,relative viability,NCI-H1944; first compound 0.08 µM,0.365
same,relative viability,NCI-H1944; first compound 0.253 µM,0.414
same,relative viability,NCI-H1944; first compound 0.8 µM,0.396
same,relative viability,NCI-H1944; first compound 2.53 µM,0.428
same,relative viability,NCI-H1944; first compound 8 µM,0.428
same,relative viability,HOP-62; first compound 0.08 µM,0.401
same,relative viability,HOP-62; first compound 0.253 µM,0.394
same,relative viability,HOP-62; first compound 0.8 µM,0.348
same,relative viability,HOP-62; first compound 2.53 µM,0.319
same,relative viability,HOP-62; first compound 8 µM,0.321
same,relative viability,A-427; first compound 0.08 µM,0.718
same,relative viability,A-427; first compound 0.253 µM,0.867
same,relative viability,A-427; first compound 0.8 µM,0.735
same,relative viability,A-427; first compound 2.53 µM,0.709
same,relative viability,A-427; first compound 8 µM,0.747
same,relative viability,NCI-H596; first compound 0.08 µM,0.819
same,relative viability,NCI-H596; first compound 0.253 µM,0.925
same,relative viability,NCI-H596; first compound 0.8 µM,0.823
same,relative viability,NCI-H596; first compound 2.53 µM,0.934
same,relative viability,NCI-H596; first compound 8 µM,0.801
same,relative viability,NCI-H322M; first compound 0.08 µM,0.52
same,relative viability,NCI-H322M; first compound 0.253 µM,0.558
same,relative viability,NCI-H322M; first compound 0.8 µM,0.591
same,relative viability,NCI-H322M; first compound 2.53 µM,0.443
same,relative viability,NCI-H322M; first compound 8 µM,0.529
same,relative viability,EMC-BAC-2; first compound 0.08 µM,0.804
same,relative viability,EMC-BAC-2; first compound 0.253 µM,1.04
same,relative viability,EMC-BAC-2; first compound 0.8 µM,0.842
same,relative viability,EMC-BAC-2; first compound 2.53 µM,0.908
same,relative viability,EMC-BAC-2; first compound 8 µM,0.895
same,relative viability,NCI-H2170; first compound 0.08 µM,0.996
same,relative viability,NCI-H2170; first compound 0.253 µM,1.08
same,relative viability,NCI-H2170; first compound 0.8 µM,1.06
same,relative viability,NCI-H2170; first compound 2.53 µM,0.816
same,relative viability,NCI-H2170; first compound 8 µM,1.01
